Measured values published in patent US9776962B2, “Aromatic compounds with GPR40 agonistic activity” (TAKEDA PHARMACEUTICAL COMPANY LIMITED, priority 2013, dated 2017).

biological target: T1, human GPR40 (Homo sapiens, UniProt O14842); test: Evaluation of human GPR40 agonist activity with increase in intracellular Ca2+ concentration as an index (FLIPR); format: cell-based; settings: test compound 1 μM; CHO(dhfr−) cells stably expressing human GPR40; 100% = 10 μM compound of Example 153, 0% = DMSO
T1 construct: expressed in transfected cells
Outline: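 CHO(dhfr−) cells stably expressing full-length human GPR40 were loaded with Ca2+ probe for 1 h at room temperature, then given test compound at 1 μM final. Fluorescence was followed on FLIPR, with activity scaled to a reference agonist at 10 μM (100%) and DMSO (0%).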

T1 sequence (O14842 whole entry): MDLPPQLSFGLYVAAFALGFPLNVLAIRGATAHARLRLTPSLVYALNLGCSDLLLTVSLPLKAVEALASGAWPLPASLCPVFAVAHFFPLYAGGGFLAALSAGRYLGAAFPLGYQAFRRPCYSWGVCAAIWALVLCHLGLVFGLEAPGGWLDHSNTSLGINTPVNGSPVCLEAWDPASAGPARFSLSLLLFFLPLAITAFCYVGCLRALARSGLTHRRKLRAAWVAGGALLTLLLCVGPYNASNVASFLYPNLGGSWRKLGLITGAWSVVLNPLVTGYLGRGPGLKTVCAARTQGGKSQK

For `COc1ccc(C(=O)N(CC(F)F)c2ncccn2)c(N2CCC(COc3cc(C(CC(=O)O)C4CC4)ccn3)CC2)c1` (stereo not shown) [Example 167, 3-cyclopropyl-3-(2-((1-(2-((2,2-difluoroethyl)(pyrimidin-2-yl)carbamoyl)-5-methoxyphenyl)piperidin-4-yl)methoxy)pyridin-4-yl)propanoic acid], which activation at 1 µM is on record?
The activation at 1 µM was 90%.

With `COc1ccc(C(=O)N(CC2CCOCC2)c2ccccn2)c(N2CCC(COc3cc(C(CC(=O)O)C4CC4)ccn3)CC2)c1` (stereo not shown) [Example 196, 3-cyclopropyl-3-(2-((1-(5-methoxy-2-(pyridin-2-yl(tetrahydro-2H-pyran-4-ylmethyl)carbamoyl)phenyl)piperidin-4-yl)methoxy)pyridin-4-yl)propanoic acid] as the molecule, how does the activation at 1 µM read?
Its activation at 1 µM is 81%.

How did the activation at 1 µM turn out when `COc1ccc(C(=O)N(CC(C)(C)C)c2ccccn2)c(N2CC[C@H](COc3cccc(C(CC(=O)O)C4CC4)c3)[C@@H](C)C2)c1` (stereo partly drawn) [Example 279, (3S)-cyclopropyl-3-(3-(((3R,4S)-1-(2-((2,2-dimethylpropyl) (pyridin-2-yl)carbamoyl)-5-methoxyphenyl)-3-methylpiperidin-4-yl)methoxy)phenyl)-propanoic acid] was run?
The activation at 1 µM was 92%.

With `CCc1ccc(C(=O)N(CC(C)(C)C)c2ccccn2)c(N2CCC(COc3cccc(C(CC(=O)O)C4CC4)c3)CC2)n1` (stereo not shown) [Example 60, 3-cyclopropyl-3-(3-((1-(3-((2,2-dimethylpropyl)(pyridin-2-yl)carbamoyl)-6-ethylpyridin-2-yl)piperidin-4-yl)methoxy)phenyl)propanoic acid] as the molecule, how does the activation at 1 µM read?
The activation at 1 µM was 52%.

How did the activation at 1 µM turn out when `COc1ccc(C(=O)N(CC(C)(C)C)c2cc(C)cnn2)c(N2CCC(COc3cc(C(CC(=O)O)C4CC4)ccn3)CC2)c1` (stereo not shown) [Example 232, 3-cyclopropyl-3-(2-((1-(2-((2,2-dimethylpropyl) (5-methylpyridazin-3-yl)carbamoyl)-5-methoxyphenyl)piperidin-4-yl)methoxy)pyridin-4-yl)propanoic acid] was run?
The activation at 1 µM was 85%.

Which activation at 1 µM does the source give for `CCOC(CC(=O)O)c1cccc(OCC2CCN(c3cc(OC)ccc3C(=O)N(CC(C)(C)C)c3cccc(C)n3)CC2)c1` (stereo not shown) [Example 270, 3-(3-((1-(2-((2,2-dimethylpropyl)(6-methylpyridin-2-yl)carbamoyl)-5-methoxyphenyl)piperidin-4-yl)methoxy)phenyl)-3-ethoxypropanoic acid] here?
Its activation at 1 µM is 95%.

For `COc1ccc(C(=O)N(CC(F)(F)F)c2ccnc(C)c2)c(N2CCC(COc3cc(C(CC(=O)O)C4CC4)ccn3)CC2)c1` (stereo not shown) [Example 163, 3-cyclopropyl-3-(2-((1-(5-methoxy-2-((2-methylpyridin-4-yl)(2,2,2-trifluoroethyl)carbamoyl)phenyl)piperidin-4-yl)methoxy)pyridin-4-yl)propanoic acid], which activation at 1 µM is on record?
Its activation at 1 µM is 89%.

For `COc1ccc(C(=O)N(CC(C)(C)C)C2CCCC2)c(N2CCC(COc3cc(C(CC(=O)O)C4CC4)ccn3)CC2)c1` (stereo not shown) [Example 198, 3-(2-((1-(2-(cyclopentyl(2,2-dimethylpropyl)carbamoyl)-5-methoxyphenyl)piperidin-4-yl)methoxy)pyridin-4-yl)-3-cyclopropylpropanoic acid], which activation at 1 µM is on record?
Its activation at 1 µM is 94%.

Which activation at 1 µM does the source give for `COc1ccc(C(=O)N(CC(F)(F)F)c2cc(C)ccn2)c(N2CCC(COc3cc(C(CC(=O)O)C4CC4)ccn3)CC2)c1` (stereo not shown) [Example 148, 3-cyclopropyl-3-(2-((1-(5-methoxy-2-((4-methylpyridin-2-yl)(2,2,2-trifluoroethyl)carbamoyl)phenyl)piperidin-4-yl)methoxy)pyridin-4-yl)propanoic acid] here?
Its activation at 1 µM is 104%.

`COc1ccc(C(=O)N(CC(C)(C)OC)c2ccccc2)c(N2CCC(COc3cc(C(CC(=O)O)C4CC4)ccn3)CC2)c1` (stereo not shown) [Example 188, 3-cyclopropyl-3-(2-((1-(5-methoxy-2-((2-methoxy-2-methylpropyl)(phenyl)carbamoyl)phenyl)piperidin-4-yl)methoxy)pyridin-4-yl)propanoic acid] was tested. Which activation at 1 µM did it give?
Its activation at 1 µM is 95%.

Which activation at 1 µM does the source give for `COc1ccc(C(=O)N(CC(C)(C)C)c2cccc(C)n2)c(N2CCC(C(C)Oc3cc(C(CC(=O)O)C4CC4)ccn3)CC2)c1` (stereo not shown) [Example 268, 3-cyclopropyl-3-(2-(1-(1-(2-((2,2-dimethylpropyl)(6-methylpyridin-2-yl)carbamoyl)-5-methoxyphenyl)piperidin-4-yl)ethoxy)pyridin-4-yl)propanoic acid] here?
Its activation at 1 µM is 92%.

With `COc1ccc(C(=O)N(c2ccccn2)C2CC(F)(F)C2)c(N2CCC(COc3cc(C(CC(=O)O)C4CC4)ccn3)CC2)c1` (stereo not shown) [Example 165, 3-cyclopropyl-3-(2-((1-(2-((3,3-difluorocyclobutyl)(pyridin-2-yl)carbamoyl)-5-methoxyphenyl)piperidin-4-yl)methoxy)pyridin-4-yl)propanoic acid] as the molecule, how does the activation at 1 µM read?
The activation at 1 µM was 97%.

Which activation at 1 µM does the source give for `COc1ccc(C(=O)N(CC(C)C)c2ccccn2)c(N2CCC(COc3cc(C(CC(=O)O)C4CC4)ccn3)CC2)c1` (stereo not shown) [Example 113, 3-cyclopropyl-3-(2-((1-(5-methoxy-2-((2-methylpropyl)(pyridin-2-yl)carbamoyl)phenyl)piperidin-4-yl)methoxy)pyridin-4-yl)propanoic acid] here?
The activation at 1 µM was 102%.

How did the activation at 1 µM turn out when `COc1ccc(C(=O)N(CC2CC2)c2ccccn2)c(N2CCC(COc3cc(C(CC(=O)O)C4CC4)ccn3)CC2)c1` (stereo not shown) [Example 117, 3-cyclopropyl-3-(2-((1-(2-((cyclopropylmethyl)(pyridin-2-yl)carbamoyl)-5-methoxyphenyl)piperidin-4-yl)methoxy)pyridin-4-yl)propanoic acid] was run?
The activation at 1 µM was 95%.

For `Cc1cccc(N(CC(C)(C)C)C(=O)c2ccc(Cl)cc2N2CCC(COc3cc(C(CC(=O)O)C4CC4)ccn3)CC2)n1` (stereo not shown) [Example 266, 3-(2-((1-(5-chloro-2-((2,2-dimethylpropyl)(6-methylpyridin-2-yl)carbamoyl)phenyl)piperidin-4-yl)methoxy)pyridin-4-yl)-3-cyclopropylpropanoic acid], which activation at 1 µM is on record?
The activation at 1 µM was 94%.

How did the activation at 1 µM turn out when `COc1ccc(C(=O)N(CC(C)(C)C)c2cncc(Cl)n2)c(N2CCC(COc3cc(C(CC(=O)O)C4CC4)ccn3)CC2)c1` (stereo not shown) [Example 180, 3-(2-((1-(2-((6-chloropyrazin-2-yl)(2,2-dimethylpropyl)carbamoyl)-5-methoxyphenyl)piperidin-4-yl)methoxy)pyridin-4-yl)-3-cyclopropylpropanoic acid] was run?
Its activation at 1 µM is 105%.

For `COc1ccc(C(=O)N(CC(C)C)c2cc(C)ccn2)c(N2CCC(COc3cc(C(CC(=O)O)C4CC4)ccn3)CC2)c1` (stereo not shown) [Example 123, 3-cyclopropyl-3-(2-((1-(5-methoxy-2-((2-methylpropyl)(4-methylpyridin-2-yl)carbamoyl)phenyl)piperidin-4-yl)methoxy)pyridin-4-yl)propanoic acid], which activation at 1 µM is on record?
Its activation at 1 µM is 99%.

`CCOC(CC(=O)O)c1ccnc(OCC2CCN(c3cc(OC)ccc3C(=O)N(CC(C)(C)C)c3cccc(C)n3)CC2)c1` (stereo not shown) [Example 272, 3-(2-((1-(2-((2,2-dimethylpropyl)(6-methylpyridin-2-yl)carbamoyl)-5-methoxyphenyl)piperidin-4-yl)methoxy)pyridin-4-yl)-3-ethoxypropanoic acid] was tested. Which activation at 1 µM did it give?
Its activation at 1 µM is 95%.

With `COc1ccnc(N(CC(C)C)C(=O)c2ccc(OC)cc2N2CCC(COc3cc(C(CC(=O)O)C4CC4)ccn3)CC2)c1` (stereo not shown) [Example 135, 3-cyclopropyl-3-(2-((1-(5-methoxy-2-((4-methoxypyridin-2-yl)(2-methylpropyl)carbamoyl)phenyl)piperidin-4-yl)methoxy)pyridin-4-yl)propanoic acid] as the molecule, how does the activation at 1 µM read?
The activation at 1 µM was 94%.
